Experimental data as given in patent US4482568A, “Inhibition of alcohol metabolism by tetramethylene sulfoxides” (University of Iowa Research Foundation, priority 1983, dated 1984).
Read-outs that look alike come from different tables or passages of the source.

Key:
ethanol metabolism [1] = assay: Ethanol (elimination rate) metabolism in rats; assay type: in vivo, male Sprague-Dawley rats; details: for Ethanol (Elimination Rate) Metabolism In Rats, % Inhibition: 19.6 mmoles of ethanol/kg i.p. and 1 mmole/kg inhibitor, maximum obtainable about 85%
Description: ^b The Kii (intercept inhibition constant, micromoles/kg) was
determined with varied concentrations of inhibitor and ethanol by
determination of blood alohol concentrations. For a survey of inhibitory
potency, rats were given 19.6 mmoles of ethanol/kg body wt., i.p., and 1.
mmole of the inhibitor, and the percentage inhibition of ethanol
elimination was calculated with reference to an animal given no inhibitor
The maximum "inhibition" that can be obtained is about 85%, since some
ethanol is eliminated by excretion, rather than by oxidation by alcohol
^c The value was estimated from results from rats given 19.6 mmoles o
ethanol/kg and 0.1, 0.4, and 1.0 mmoles/kg of the inhibitor.
The precise experimental details for assembling the data shown in the above table are reported in our Journal of Medicinal Chemistry article, 1983, Vol. 26, No. 6, at page 921. The entire article is incorporated herein by reference. In particular, for the rat studies, inhibition of ethanol metabolism by the active compounds of this invention were studied in vitro in liver alcohol dehydrogenase from horses, monkeys and rats. The in vivo study of ethanol metabolism in rats, and in particular its inhibition was studied with male Sprague-Dawley rats, which were given intraperitoneal injections of active compounds (0.1 molar) in saline at doses of 0.0, 0.25 and 0.5 or 1.0 mmole/kg of body weight. Ten minutes later, ethanol was injected intraperitoneally at a dose of 19.6 mmoles/kg of body weight. Blood samples were taken at intervals, timed from the ethanol injection, and analyzed by gas chromatography.

[2] = molecular target: Liver Alcohol Dehydrogenase (Monkey); assay: Inhibition of monkey liver alcohol dehydrogenase in vitro (Kii against varied ethanol); assay type: biochemical; details: purified or partially purified enzyme, pH 7.3, 37° C., ethanol varied as substrate
Description: (§1) ^a The Kii values (intercept) inhibition constants in micromolar
(§2) units as determined against varied concentrations of ethanol as substrate
(§3) Purified or partially purified enzyme was tested under approximately
(§4) physiological conditions, pH 7.3 and 37° C., except that the
(§5) crystallized horse enzyme was tested at pH 7 and 25° C.

[3] = molecular target: T1, Rat liver alcohol dehydrogenase (Rattus norvegicus, UniProt P06757); assay: Inhibition of rat liver alcohol dehydrogenase in vitro (Kii against varied ethanol); assay type: biochemical
T1 construct: Rat liver alcohol dehydrogenase was partially purified; from tissue; host or cells: rat liver
T1 sequence (P06757 2-376 limits assumed): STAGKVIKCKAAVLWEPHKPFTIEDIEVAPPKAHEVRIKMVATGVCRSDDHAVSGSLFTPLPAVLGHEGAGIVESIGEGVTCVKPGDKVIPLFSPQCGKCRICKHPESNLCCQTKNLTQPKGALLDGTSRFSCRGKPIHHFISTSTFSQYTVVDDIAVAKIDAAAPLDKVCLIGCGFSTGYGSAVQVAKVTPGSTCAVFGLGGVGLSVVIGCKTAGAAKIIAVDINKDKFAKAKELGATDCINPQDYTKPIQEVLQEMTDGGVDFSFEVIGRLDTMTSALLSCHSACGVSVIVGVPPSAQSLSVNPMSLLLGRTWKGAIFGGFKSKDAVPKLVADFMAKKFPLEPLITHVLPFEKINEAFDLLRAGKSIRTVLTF
Description: as §1, §2, §3, §4, §5
(§6) Crystallized horse liver alcohol dehydrogenase was freed from endogenous ethanol by filtration though a column of Sephadex G-50. Inhibition studies were carried out with varied concentrations of ethanol (0.4-2 mM) at 1 mM NAD+ in 46 mM sodium phosphate buffer, pH 7, at 25° C. In each experiment, at least three different concentrations of inhibitor were tested and 32 initial velocities were determined (as in FIGS. 2A and 3A of the Journal article). Data for noncompetitive inhibition were fitted to the equation v=VS/[Km (1+[…])+S(1+I/Kii)], whereas the equation for uncompetitive inhibition has no Kis term, and competitive inhibition has no Kii term. The equation giving the lowest standard errors and residual variance was concluded to give the best fit. Rat liver alcohol dehydrogenase was partially purified, and inhibition studies were performed as with the horse liver enzyme, except that the buffer was 83 mM potassium phosphate, pH 7.3, and 40 mM KCl, total ionic strength=0.25, and the temperature was 37.8° C. The concentration of NAD was 0.5 mM. These conditions are thought to resemble those found in vivo. The concentrations of ethanol were 0.4, 0.6, 1, and 2 mM, and the inhibitors were varied between 0 and 0.6 mM.

[4] = molecular target: T2, horse liver alcohol dehydrogenase (Equus caballus, UniProt P00327); assay: Inhibition of horse liver alcohol dehydrogenase in vitro (Kii against varied ethanol); assay type: biochemical
T2 construct: Crystallized horse liver alcohol dehydrogenase; from tissue; host or cells: horse liver
T2 sequence (P00327 2-375 limits assumed): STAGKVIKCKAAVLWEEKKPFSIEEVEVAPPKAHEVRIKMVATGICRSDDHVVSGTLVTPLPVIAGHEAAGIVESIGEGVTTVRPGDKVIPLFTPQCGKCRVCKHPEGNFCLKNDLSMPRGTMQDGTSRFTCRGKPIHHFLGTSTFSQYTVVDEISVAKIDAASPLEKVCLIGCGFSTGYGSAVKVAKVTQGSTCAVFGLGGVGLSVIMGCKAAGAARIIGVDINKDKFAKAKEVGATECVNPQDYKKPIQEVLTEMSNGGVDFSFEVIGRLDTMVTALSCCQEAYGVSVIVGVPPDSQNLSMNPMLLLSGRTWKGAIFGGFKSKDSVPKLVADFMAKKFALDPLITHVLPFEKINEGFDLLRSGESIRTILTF
Description: as §1, §2, §3, §4, §5, §6

[5] = tested on: isolated liver alcohol dehydrogenases; assay: Inhibition of ethanol oxidation by isolated liver alcohol dehydrogenases (general statements); assay type: biochemical
Description: as §6

ethanol metabolism [6] = assay: Blood alcohol concentration in rats after ethanol and inhibitor (FIG. 1); assay type: in vivo; details: 19.6 mmol/kg ethanol, 1 mmol/kg inhibitor
Description: In order to compare dimethyl sulfoxide and its potential as an inhibitor with the compounds of this invention, rats were given dosages of 19.6 millimoles per kilogram of body weight of alcohol and/or injections of one millimole per kilogram of body weight of the inhibitors, either dimethyl sulfoxide, tetramethylene sulfoxide, 3-methyltetramethylene sulfoxide, or 3-butyltetramethylene sulfoxide. After injection, the alcohol concentration in the blood was measured. The drawing reports the alcohol concentration. The line designated by the numeral 12 represents ethanol without any inhibitor. The line designated by 11 represents ethanol with dimethyl sulfoxide. The line represented by the numeral 13 represents ethanol with tetramethylene sulfoxide.

[7] = tested on: ethanol induced loss of righting reflex; details: mice; Sharkawi 1979; cited from earlier work
[8] = tested on: alcohol dehydrogenases in the liver; details: background, cited from earlier work
[9] = partially purified enzyme, pH 7.3, 37° C., ethanol varied as substrate, read-out: Liver Alcohol Dehydrogenase, In Vitro, Kii, Rat
[10] = crystallized horse enzyme, pH 7, 25° C., ethanol varied as substrate, read-out: Liver Alcohol Dehydrogenase, In Vitro, Kii, Horse

SMILES	Ethanol (Elimination Rate) Metabolism In Rats, % Inhibition (ethanol metabolism [1]) [%]	Ki [2] [µM]	effectiveness as inhibitor of alcohol metabolism (blood alcohol concentration) (ethanol metabolism [6])	Ki [3, 9] [µM]	Ki [4, 10] [µM]	also measured
[O-][S+]1CCCC1 [Tetramethylene Sulfoxide, tetramethylene sulfoxide]	63	1700	far more effective			inhibition of ethanol metabolism in animals (in words) (ethanol metabolism [1]; animals/rats): effectively inhibit ethanol metabolism in animals; Ethanol (Elimination Rate) Metabolism In Rats, Kii (ethanol metabolism [1]; intercept inhibition constant, varied concentrations of inhibitor and ethanol, blood alcohol concentrations, i.p.): 340 µmol/kg; Ki [3]: 200 µM; Ki [4]: 19 µM; inhibition of ethanol oxidation by isolated liver alcohol dehydrogenases (in words) [5]: exceptionally potent inhibitors
CCCCC1CC[S+]([O-])C1 (stereo not shown) [3-Butyltetramethylene sulfoxide, 3-butylthiolane-1-oxide]	76	2.2	far superior to even tetramethylene sulfoxide	1.5	0.63	
C[S+](C)[O-] [dimethyl sulfoxide, reference compound]			not effective as an inhibitor			inhibition constant with horse liver alcohol dehydrogenase ([4]; stated for comparison): four to five; effect on ethanol induced loss of righting reflex [7]: significantly "prolong the ethanol induced loss of righting reflex in mice"; inhibitory effect on alcohol metabolism ([8]; Sharkawi, Toxicology Letters 1979): some slight inhibitory effect
CC1CC[S+]([O-])C1 (stereo not shown) [3-Methyltetramethylene sulfoxide, 3-Methylthiolane-1-oxide]	72	450	far superior to even tetramethylene sulfoxide	18	7.5	Ethanol (Elimination Rate) Metabolism In Rats, Kii (estimated) (ethanol metabolism [1]; estimated from rats given 19.6 mmoles of ethanol/kg and 0.1, 0.4, and 1.0 mmoles/kg of inhibitor): 150 µmol/kg
CCO [ethanol]						type of inhibition [8]: competitive inhibitor; effectiveness as inhibitor ([8]; ethanol as treatment for toxic alcohol ingestion): not a very effective inhibitor
